Columns and labels:
[1] = molecular target: T1, VP16-human estrogen receptor alpha (ERa) chimeric polypeptide (Homo sapiens, UniProt P03372, G400V); experiment: Transgenic Arabidopsis T2 seedlings containing VP16ERα and ERE-GFP constructs, green fluorescence; type: cell-based; design: expressed in transfected cells; host or cells: transgenic rice callus (A1); transgenic Arabidopsis T2 seedlings (A2); Agrobacterium binary vector Bin4-EUTG-10::VPCR-ER-1#81, CaMV35S promoter
[2] = molecular target: T1, VP16-human estrogen receptor alpha (ERa) chimeric polypeptide
Method: About 50 selected lines were obtained and cultured at 27° C. on N6 media containing 5 mg/ml bialaphos, with transfer to fresh media occurring about every 2 weeks. […] After incubation for about 40 hours, callus cells were examined under a dissecting microscope at 10× to 60× magnification.

T1 sequence (P03372 with tags, fused parts or gaps G400V): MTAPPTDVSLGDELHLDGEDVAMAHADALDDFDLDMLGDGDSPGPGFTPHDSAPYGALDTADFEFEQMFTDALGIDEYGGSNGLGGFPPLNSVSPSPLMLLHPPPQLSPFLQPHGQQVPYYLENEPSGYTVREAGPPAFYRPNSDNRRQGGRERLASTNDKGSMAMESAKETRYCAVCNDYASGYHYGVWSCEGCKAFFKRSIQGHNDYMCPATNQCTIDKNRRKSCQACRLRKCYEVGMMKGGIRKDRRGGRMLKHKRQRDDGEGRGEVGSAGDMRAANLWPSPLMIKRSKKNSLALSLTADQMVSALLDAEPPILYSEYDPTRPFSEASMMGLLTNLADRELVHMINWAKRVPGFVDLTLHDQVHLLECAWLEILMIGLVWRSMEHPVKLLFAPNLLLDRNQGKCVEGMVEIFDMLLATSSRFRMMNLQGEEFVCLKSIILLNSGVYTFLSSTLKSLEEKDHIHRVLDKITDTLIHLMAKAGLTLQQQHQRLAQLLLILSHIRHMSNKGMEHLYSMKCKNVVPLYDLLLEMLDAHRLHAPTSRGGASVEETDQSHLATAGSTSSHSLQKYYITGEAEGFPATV

## 4-hydroxytamoxifen
[1]
  green fluorescence (GFP reporter) of T2 seedlings: moderate to strong green fluorescence
[2]
  green fluorescence (GFP reporter) in the presence of the exogenous compound: moderate to very bright green fluorescence
